Assay results published in patent US10064954B2, “Polymer-cyclodextrin-lipid conjugates” (priority 2015, dated 2018).
Structures can show the parent of a compound that is named as a salt.

Columns and labels:
[1] = Solubility of marketed Drug Products: cyclodextrin to drug ratio
[2] = assay type: physicochemical
Description: 1% (w/v) of propofol was prepared in a saline based solution with different PEG-carbohydrate conjugates. Table 6 listed the minimum concentration of the conjugates required to solublize propofol as a solubility test reference.

[3] = CD = sulfobutyl ether β-cyclodextrin
[4] = CD = hydroxypropyl-β-cyclodextrin

Compound | CD/D (mol/mol) [1, 4] [mol/mol] | other results
CC[C@@H]([C@H](C)O)n1ncn(-c2ccc(N3CCN(c4ccc(OC[C@@H]5CO[C@@](Cn6cncn6)(c6ccc(F)cc6F)C5)cc4)CC3)cc2)c1=O [Posaconazole] |  | CD/D (mol/mol) [1, 3]: 6.9 mol/mol
CNC(=C[N+](=O)[O-])NCCSCc1ccc(CN(C)C)o1 [Ranitidine HCl] | 14.5 | 
CCCCCCCCCCNCCN[C@@]1(C)C[C@H](O[C@H]2[C@H](Oc3c4cc5cc3Oc3ccc(cc3Cl)[C@@H](O)[C@@H](NC(=O)[C@@H](CC(C)C)NC)C(=O)N[C@@H](CC(N)=O)C(=O)N[C@H]5C(=O)N[C@H]3C(=O)N[C@H](C(=O)N[C@H](C(=O)O)c5cc(O)c(CNCP(=O)(O)O)c(O)c5-c5cc3ccc5O)[C@H](O)c3ccc(c(Cl)c3)O4)O[C@H](CO)[C@@H](O)[C@@H]2O)O[C@@H](C)[C@H]1O [Telavancin HCl] | 12.6 | 
CC(C)NCC(O)COc1cccc2ccccc12 (stereo not drawn) [Propranolol] | 10.4 | 
CN(Cc1cnc2nc(N)nc(N)c2n1)c1ccc(C(=O)N[C@@H](CCC(=O)O)C(=O)O)cc1 [Methotrexate] | 18.3 | 
CN1C(=O)CN=C(c2ccccc2)c2cc(Cl)ccc21 [Diazepam] | 18.4 | 
oleoylpropanediaminelactobionate-mPEG12 |  | Concentration (% w/v) [2]: 3.0 % w/v
C[C@@H](c1ncncc1F)[C@](O)(Cn1cncn1)c1ccc(F)cc1F [Voriconazole] |  | CD/D (mol/mol) [1, 3]: 2.5 mol/mol
cholesterypropanediaminelactobionate-mPEG12 |  | Concentration (% w/v) [2]: 3.5 % w/v
O=C(CCCN1CCC(O)(c2ccc(Cl)cc2)CC1)c1ccc(F)cc1 [Haloperidol] | 302.9 | 
2-hydroxypropyl-β-cyclodextrin |  | Concentration (% w/v) [2]: 30 % w/v
CCC(C)n1ncn(-c2ccc(N3CCN(c4ccc(OCC5COC(Cn6cncn6)(c6ccc(Cl)cc6Cl)O5)cc4)CC3)cc2)c1=O (stereo not drawn) [Itraconazole] | 20.2 | 
